These results are taken from ChEMBL document CHEMBL6177930, “2-(4-Bromobenzyl) tethered 4-amino aryl/alkyl-5,6,7,8-tetrahydrobenzo[4,5]thieno[2,3-d]pyrimidines: design, synthesis, anticancer assessment via dual topoisomerase-I/II inhibition, and in silico studies” (RSC Med Chem, 2025).

What all share (format): functional
What all share (conditions): time 48-72 hrs

The subject of one assay is FaDu. Briefly: Antiproliferative activity against human FaDu cells assessed as inhibition of cell growth at 10 uM measured after 48 to 72 hrs by MTT assay relative to control.
In another assay the test system is MCF7. Briefly: Antiproliferative activity against human MCF7 cells assessed as inhibition of cell growth at 10 uM measured after 48 to 72 hrs by MTT assay relative to control.
In the next assay the test system is A549. Briefly: Antiproliferative activity against human A549 cells assessed as inhibition of cell growth at 10 uM measured after 48 to 72 hrs by MTT assay relative to control.
The subject of the next assay is MDA-MB-231. Briefly: Antiproliferative activity against human MDA-MB-231 cells assessed as inhibition of cell growth at 10 uM measured after 48 to 72 hrs by MTT assay relative to control.
A short description of assay [1]: Antiproliferative activity against human HCC cells assessed as inhibition of cell growth at 10 uM measured after 48 to 72 hrs by MTT assay relative to control.
The test system of the next assay is T47D. Briefly: Antiproliferative activity against human T47D cells assessed as inhibition of cell growth at 10 uM measured after 48 to 72 hrs by MTT assay relative to control.

As for `Fc1ccc(CNc2nc(Cc3ccc(Br)cc3)nc3sc4c(c23)CCCC4)cc1`, the inhibition at 10 µM with FaDu was determined as 21.4%; with MCF7, 0.55%; with A549, 1.55%; with MDA-MB-231, 10.8%; in assay [1] it was 1.36%; with T47D, 2.58%.
Take `Brc1ccc(Cc2nc(NC3CCCCC3)c3c4c(sc3n2)CCCC4)cc1`: the inhibition at 10 µM with FaDu stood at 27.4%; with MCF7, 19%; in the assay on A549, 1.56%; in the assay on MDA-MB-231, 1.22%; in assay [1] it was 12.8%; in the assay on T47D, 1.35%.
For the compound `Brc1ccc(Cc2nc(-n3ccnc3)c3c4c(sc3n2)CCCC4)cc1`, the inhibition at 10 µM was determined as 46.9% with FaDu; 3.19% in the assay with MCF7; 2.45% in the assay with A549; 12.8% in the assay on MDA-MB-231; 2.03% in assay [1]; 1.99% in the assay with T47D.
Turning to `OCCNc1nc(Cc2ccc(Br)cc2)nc2sc3c(c12)CCCC3`, the inhibition at 10 µM in the assay on FaDu was 50.2%; with MCF7 it was 2.71%; with A549, 1.21%; with MDA-MB-231, 2.1%; in assay [1] it was 2%; with T47D, 5.73%.
As for `COc1ccc(CNc2nc(Cc3ccc(Br)cc3)nc3sc4c(c23)CCCC4)cc1`, the inhibition at 10 µM turned out to be 26.8% in the assay with FaDu; 29.6% in the assay with MCF7; 1.69% in the assay on A549; 13.7% in the assay with MDA-MB-231; 1.01% in assay [1]; 1.05% with T47D.
Turning to `C#Cc1cccc(Nc2ncnc3cc(OCCOC)c(OCCOC)cc23)c1` [ERLOTINIB], the inhibition at 10 µM with FaDu amounted to 19.7%; in the assay on MCF7, 6.71%; with MDA-MB-231, 19.6%; in assay [1] it was 4.19%; in the assay on T47D it was 1.27%.
For the compound `CCCNc1nc(Cc2ccc(Br)cc2)nc2sc3c(c12)CCCC3`, the inhibition at 10 µM in the assay with FaDu came out at 56.2%; in the assay on MCF7, 3.16%; with A549, 3.63%; in the assay with MDA-MB-231 it was 3.11%; in assay [1], 1.37%; in the assay with T47D, 17.3%.
`NCCCNc1nc(Cc2ccc(Br)cc2)nc2sc3c(c12)CCCC3`: the inhibition at 10 µM worked out at 54.1% in the assay with FaDu; 8.28% with MCF7; 8.86% in the assay on A549; 1.12% in the assay on MDA-MB-231; 8.12% in assay [1]; 8.24% in the assay with T47D.
Turning to `Brc1ccc(Cc2nc(N3CCCC3)c3c4c(sc3n2)CCCC4)cc1`, the inhibition at 10 µM in the assay on FaDu is 49.2%; in the assay on MCF7 it was 19.4%; with A549 it was 10.3%; with MDA-MB-231, 8.72%; in assay [1], 1.36%; in the assay with T47D, 3.74%.
In the case of `Brc1ccc(Cc2nc(NCc3ccccn3)c3c4c(sc3n2)CCCC4)cc1`, the inhibition at 10 µM in the assay with FaDu was 29.1%; with MCF7, 4.03%; with A549, 3.32%; in the assay on MDA-MB-231 it was 1.25%; in assay [1], 2.05%; with T47D, 17.9%.
Turning to `Clc1ccccc1CNc1nc(Cc2ccc(Br)cc2)nc2sc3c(c12)CCCC3`, the inhibition at 10 µM turned out to be 18.1% with FaDu; 9.51% in the assay with MCF7; 2.67% in the assay on A549; 0.1% in the assay on MDA-MB-231; 1.55% in assay [1]; 3.69% in the assay with T47D.
Take `C=CCNc1nc(Cc2ccc(Br)cc2)nc2sc3c(c12)CCCC3`: the inhibition at 10 µM in the assay on FaDu turned out to be 45.2%; with MCF7, 20.5%; in the assay with A549, 2.89%; in the assay on MDA-MB-231, 1.17%; in assay [1] it was 1.55%; in the assay on T47D, 2.35%.
In the case of `CC(C)(C)OC(=O)N1CCN(c2nc(Cc3ccc(Br)cc3)nc3sc4c(c23)CCCC4)CC1`, the inhibition at 10 µM in the assay on FaDu turned out to be 16.6%; in the assay on MCF7, 15.1%; in the assay with A549, 0.29%; with MDA-MB-231 it was 38.9%; in assay [1], 2.01%; in the assay on T47D it was 3.33%.
Take `Fc1ccccc1CNc1nc(Cc2ccc(Br)cc2)nc2sc3c(c12)CCCC3`: the inhibition at 10 µM in the assay on FaDu is 26.2%; in the assay with MCF7, 19.4%; in the assay with A549, 3.45%; in the assay with MDA-MB-231, 6.27%; in assay [1], 2.55%; in the assay with T47D, 2.14%.
As to `CCN(CC)c1nc(Cc2ccc(Br)cc2)nc2sc3c(c12)CCCC3`, the inhibition at 10 µM was found to be 34.2% in the assay on FaDu; 15.7% in the assay on MCF7; 2.22% in the assay with A549; 1.91% with MDA-MB-231; 1.47% in assay [1]; 2.88% in the assay on T47D.
Consider `CNc1nc(Cc2ccc(Br)cc2)nc2sc3c(c12)CCCC3`, for which the inhibition at 10 µM was found to be 23.4% in the assay on FaDu; 18.7% in the assay with MCF7; 2.65% in the assay on A549; 1.09% in the assay with MDA-MB-231; 1.28% in assay [1]; 1.69% with T47D.
Consider `Nc1ccccc1CNc1nc(Cc2ccc(Br)cc2)nc2sc3c(c12)CCCC3`, for which the inhibition at 10 µM in the assay on FaDu turned out to be 25.9%; in the assay with MCF7 it was 2.66%; with A549, 1.33%; in the assay on MDA-MB-231, 5.74%; in assay [1], 1.89%; in the assay on T47D, 1.79%.
Consider `Brc1ccc(Cc2nc(NC3CC3)c3c4c(sc3n2)CCCC4)cc1`, for which the inhibition at 10 µM in the assay with FaDu was 28.9%; with MCF7 it was 38.5%; in the assay on A549 it was 1.11%; in the assay on MDA-MB-231, 2.23%; in assay [1] it was 2.11%; in the assay with T47D, 1.31%.
On to `Fc1cc(CNc2nc(Cc3ccc(Br)cc3)nc3sc4c(c23)CCCC4)cc(F)c1F`, for which the inhibition at 10 µM in the assay with FaDu is 25.8%; with MCF7, 8.28%; in the assay on A549 it was 6.63%; in the assay with MDA-MB-231 it was 2.39%; in assay [1] it was 1.57%; in the assay on T47D, 3.01%.
Take `Brc1ccc(Cc2nc(NCc3ccccc3)c3c4c(sc3n2)CCCC4)cc1`: the inhibition at 10 µM was 24.3% in the assay with FaDu; 0.55% in the assay with MCF7; 3.12% with A549; 4.99% in the assay on MDA-MB-231; 1.79% in assay [1]; 11.2% with T47D.
